Data reported in article PMC9266368, “Synthesis and Biological Evaluation of Small Molecules as Potential Anticancer Multitarget Agents” (International Journal of Molecular Sciences, 2022).

Legend:
total PD-L1 (tPD-L1) = molecular target: T1, total PD-L1 (tPD-L1) (Homo sapiens, UniProt Q9NZQ7); test: Total PD-L1 relative quantification by flow cytometry; type: cell-based; details: for tPD-L1 relative detection, A-549 / tPD-L1 relative detection, HT-29 / tPD-L1 relative detection, MCF-7: 24 h, 100 or 10 μM (Table 7), relative to DMSO control
T1 construct: endogenous in cells; host or cells: HT-29, A-549, MCF-7
T1 sequence (Q9NZQ7 19-290): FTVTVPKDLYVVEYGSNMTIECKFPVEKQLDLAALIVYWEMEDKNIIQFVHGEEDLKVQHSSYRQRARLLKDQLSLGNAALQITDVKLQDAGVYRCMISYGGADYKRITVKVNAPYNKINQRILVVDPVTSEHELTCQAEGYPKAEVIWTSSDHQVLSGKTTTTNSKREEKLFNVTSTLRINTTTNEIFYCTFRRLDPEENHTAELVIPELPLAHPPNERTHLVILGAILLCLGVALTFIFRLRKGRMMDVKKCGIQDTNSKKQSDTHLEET
Procedure: (§1) The study was carried out again on HT-29, A-549, and MCF-7 cell lines by flow cytometry after 24 h of treatment with the corresponding compounds. The presence of the targets in the whole cell were relatively determined by using DMSO-treated cells as a negative control and BMS-8 as a positive one for PD-L1 (Table 3).
(§2) To study the effect of the compounds on every biological target in cancer cell lines the compounds were used at a 100 or 10 μM dose, depending on their IC50 and the treated cell line.
(§3) For the assay, 10^5 cells per well were incubated for 24 h with the corresponding dose of the tested compound in a total volume of 500 μL of their growth media.
(§4) For the detection of total PD-L1, VEGFR-2, and c-Myc, the procedure was the same as for membrane targets, but after fixation, a treatment with 0,5% in PBS TritonTM X-100 was performed. The antibodies used for PD-L1 and VEGFR-2 were the ones previously described, and for the detection of c-Myc, it was FITC Rabbit monoclonal anti-c-Myc (ab223913).

[1] = tested on: HEK-293 (human embryonic kidney cells); test: MTT cell viability assay, HEK-293; type: cell-based; details: HEK293, 48 h, 2 days incubation, non-tumor cell line, average ±SD of three experiments
Procedure: (§5) The effects of triazole derivatives 1–26 on the cell viability were determined by MTT assay, and the IC50 values were determined toward the human tumor cell lines HT-29 (colon adenocarcinoma), A-549 (lung adenocarcinoma), and MCF-7 (breast adenocarcinoma), as well as toward the non-tumor cell line HEK-293 (human embryonic kidney cells).
(§6) In 96-well plates, 3 × 10^3 (A549 and HEK-293) or 5 × 10^3 (HT-29, MCF-7) cells per well were incubated with serial dilutions of the tested compounds in a total volume of 100 μL of their growth media. The 3-(4,5-dimethylthiazol-2-yl)-2,5-diphenyltetrazolium bromide (MTT; Sigma Chemical Co.) dye reduction assay in 96-well microplates was used. After 2 days of incubation (37 °C, 5% CO2 in a humid atmosphere), 10 μL of MTT (5 mg/mL in phosphate-buffered saline, PBS) was added to each well, and the plate was incubated for a further 3 h (37 °C). After that, the supernatant was discarded and replaced by 100 µL of DMSO to dissolve formazan crystals. The absorbance was then read at 550 nm by spectro-photometry. For all concentrations of compound, cell viability was expressed as the percentage of the ratio between the mean absorbance of treated cells and the mean absorbance of untreated cells. Three independent experiments were performed, and the IC50 values (i.e., concentration half inhibiting cell proliferation) were graphically determined by using GraphPad Prism 4 software (2019).

membrane PD-L1 (mPD-L1) = molecular target: T2, membrane PD-L1 (mPD-L1) (Homo sapiens, UniProt Q9NZQ7); test: Membrane PD-L1 relative quantification by flow cytometry; type: cell-based; details: 24 h, 100 or 10 μM (Table 7), percentage referred to DMSO control
T2 construct: endogenous in cells; host or cells: HT-29, A-549, MCF-7
T2 sequence (Q9NZQ7 19-290): as above
Procedure: Based on antiproliferative activity of synthetized derivatives, we decided to study the effect of the amino derivatives 14–26 on the expression of both membrane targets PD-L1 and VEGFR-2 (mPD-L1 and mVEGFR-2). The evaluation was performed on three cancer cell lines (HT-29, A-549, and MCF-7) by flow cytometry after 24 h of treatment with the corresponding compounds. Compounds were used at a 100 or 10 μM concentration depending on their IC50 value (see Table 1 in Materials and Methods section). The presence of both targets in the membrane was relatively determined by using DMSO-treated cells as a negative control.
as §2, §3
To detect membrane PD-L1 and VEGFR-2, after the cell treatments, they were collected, fixed with 4% in PBS paraformaldehyde, and stained with FITC Mouse monoclonal Anti-Human VEGFR-2 (ab184903) and Alexa Fluor® 647 Rabbit monoclonal Anti-PD-L1 (ab215251).

[2] = tested on: MCF-7 (breast adenocarcinoma); test: MTT cell viability assay, MCF-7; type: cell-based; details: Homo sapiens, MCF7, 48 h, 2 days incubation, average ±SD of three experiments
Procedure: as §5, §6

[3] = molecular target: T3, membrane VEGFR-2 (mVEGFR-2) (Homo sapiens, UniProt P35968); test: Membrane VEGFR-2 relative quantification by flow cytometry; type: cell-based; details: 24 h, 100 or 10 μM (Table 7), sorafenib 10 μM, percentage referred to DMSO control
T3 construct: endogenous in cells; host or cells: HT-29, A-549, MCF-7
T3 sequence (P35968 20-1356): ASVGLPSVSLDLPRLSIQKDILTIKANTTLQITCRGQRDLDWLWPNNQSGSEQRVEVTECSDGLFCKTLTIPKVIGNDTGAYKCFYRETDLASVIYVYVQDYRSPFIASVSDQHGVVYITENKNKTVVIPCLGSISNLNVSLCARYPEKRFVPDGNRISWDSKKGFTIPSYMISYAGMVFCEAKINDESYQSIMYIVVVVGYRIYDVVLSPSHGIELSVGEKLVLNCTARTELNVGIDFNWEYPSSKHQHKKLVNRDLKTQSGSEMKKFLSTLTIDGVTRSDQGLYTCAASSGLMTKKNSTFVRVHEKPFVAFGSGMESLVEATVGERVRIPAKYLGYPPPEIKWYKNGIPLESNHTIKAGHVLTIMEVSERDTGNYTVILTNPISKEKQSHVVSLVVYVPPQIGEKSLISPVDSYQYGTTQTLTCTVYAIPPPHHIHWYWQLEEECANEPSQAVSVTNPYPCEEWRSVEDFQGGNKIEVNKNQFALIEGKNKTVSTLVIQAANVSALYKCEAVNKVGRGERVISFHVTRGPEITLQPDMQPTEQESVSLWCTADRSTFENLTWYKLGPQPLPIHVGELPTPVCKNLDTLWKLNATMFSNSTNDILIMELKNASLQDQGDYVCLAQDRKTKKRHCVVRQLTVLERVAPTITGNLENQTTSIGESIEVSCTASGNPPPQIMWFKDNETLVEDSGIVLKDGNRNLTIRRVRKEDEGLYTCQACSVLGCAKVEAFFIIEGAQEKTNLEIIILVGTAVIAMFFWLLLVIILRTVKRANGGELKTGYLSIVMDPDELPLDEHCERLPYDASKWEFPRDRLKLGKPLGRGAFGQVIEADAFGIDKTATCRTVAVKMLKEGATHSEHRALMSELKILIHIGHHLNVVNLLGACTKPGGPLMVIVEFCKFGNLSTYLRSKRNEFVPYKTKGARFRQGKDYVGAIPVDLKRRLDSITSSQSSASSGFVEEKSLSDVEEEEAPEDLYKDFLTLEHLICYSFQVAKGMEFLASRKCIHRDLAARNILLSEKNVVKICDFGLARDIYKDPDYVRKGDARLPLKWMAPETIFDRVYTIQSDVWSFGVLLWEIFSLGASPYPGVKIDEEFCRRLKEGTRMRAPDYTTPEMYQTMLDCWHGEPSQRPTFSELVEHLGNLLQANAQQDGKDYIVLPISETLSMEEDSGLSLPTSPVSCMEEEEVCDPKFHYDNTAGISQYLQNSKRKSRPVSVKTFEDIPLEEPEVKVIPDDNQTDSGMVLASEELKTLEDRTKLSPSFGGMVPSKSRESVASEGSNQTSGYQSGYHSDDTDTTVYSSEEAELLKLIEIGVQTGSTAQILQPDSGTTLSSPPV
Procedure: The presence of both targets in the membrane was relatively determined by using DMSO-treated cells as a negative control.
as §3

c-Myc = c-Myc relative quantification by flow cytometry; type: cell-based, human; details: for c-Myc relative detection, A-549 / c-Myc relative detection, HT-29 / c-Myc relative detection, MCF-7: 24 h, 100 or 10 μM (Table 7), relative to DMSO control
Procedure: as §1, §2, §3, §4

[4] = tested on: HT-29 (colon adenocarcinoma); test: MTT cell viability assay, HT-29; type: cell-based; details: Homo sapiens, HT-29, 48 h, 2 days incubation, average ±SD of three experiments
Procedure: as §5, §6

[5] = tested on: A-549 (lung adenocarcinoma); test: MTT cell viability assay, A-549; type: cell-based; details: Homo sapiens, A549, 48 h, 2 days incubation, average ±SD of three experiments
Procedure: as §5, §6

[6] = A-549, compared to non-treated cells

SMILES	melting point [°C]	tPD-L1 relative detection, A-549 (total PD-L1 (tPD-L1); A-549) [%]	tPD-L1 relative detection, HT-29 (total PD-L1 (tPD-L1)) [%]	tPD-L1 relative detection, MCF-7 (total PD-L1 (tPD-L1)) [%]	mPD-L1 relative detection, A-549 (membrane PD-L1 (mPD-L1)) [%]	mPD-L1 relative detection, HT-29 (membrane PD-L1 (mPD-L1)) [%]	mPD-L1 relative detection, MCF-7 (membrane PD-L1 (mPD-L1)) [%]	IC50 [2] [µM]	mVEGFR-2 relative detection, A-549 [3] [%]	mVEGFR-2 relative detection, HT-29 [3] [%]	mVEGFR-2 relative detection, MCF-7 [3] [%]	IC50 [4] [µM]	IC50 [5] [µM]	Inhibition of total PD-L1, A-549 (total PD-L1 (tPD-L1); [6]) [%]	IC50 [1] [µM]	c-Myc relative detection, A-549 (c-Myc; A-549) [%]	Inhibition of c-Myc, A-549 (c-Myc; [6]) [%]	c-Myc relative detection, HT-29 (c-Myc) [%]	c-Myc relative detection, MCF-7 (c-Myc) [%]
Clc1cccc(Cn2cc(-c3ccccc3)nn2)c1 [Compound 9, 1-(3-chlorobenzyl)-4-phenyl-1H-1,2,3-triazole]	108 to 110																		
Clc1ccc(Cn2cc(-c3ccccc3)nn2)cc1 [Compound 10, 1-(4-chlorobenzyl)-4-phenyl-1H-1,2,3-triazole]	141 to 144																		
Brc1ccc(Cn2cc(-c3ccccc3)nn2)cc1 [Compound 13, 1-(4-bromobenzyl)-4-phenyl-1H-1,2,3-triazole]	153 to 155																		
CNC(=O)c1cc(Oc2ccc(NC(=O)Nc3ccc(Cl)c(C(F)(F)F)c3)cc2)ccn1 [Sorafenib, sorafenib, reference compound]								14 ± 4				17 ± 4	27 ± 2		5				
Clc1ccccc1Cn1cc(-c2ccccc2)nn1 [Compound 8, 1-(2-chlorobenzyl)-4-phenyl-1H-1,2,3-triazole]	86 to 88																		
Brc1cccc(Cn2cc(-c3ccccc3)nn2)c1 [Compound 12, 1-(3-bromobenzyl)-4-phenyl-1H-1,2,3-triazole]	96 to 99																		

Now from value to molecule, other results behind:

melting point [°C]	tPD-L1 relative detection, A-549 (total PD-L1 (tPD-L1); A-549) [%]	tPD-L1 relative detection, HT-29 (total PD-L1 (tPD-L1)) [%]	tPD-L1 relative detection, MCF-7 (total PD-L1 (tPD-L1)) [%]	mPD-L1 relative detection, A-549 (membrane PD-L1 (mPD-L1)) [%]	mPD-L1 relative detection, HT-29 (membrane PD-L1 (mPD-L1)) [%]	mPD-L1 relative detection, MCF-7 (membrane PD-L1 (mPD-L1)) [%]	IC50 [2] [µM]	mVEGFR-2 relative detection, A-549 [3] [%]	mVEGFR-2 relative detection, HT-29 [3] [%]	mVEGFR-2 relative detection, MCF-7 [3] [%]	IC50 [4] [µM]	IC50 [5] [µM]	Inhibition of total PD-L1, A-549 (total PD-L1 (tPD-L1); [6]) [%]	SMILES	IC50 [1] [µM]	c-Myc relative detection, A-549 (c-Myc; A-549) [%]	Inhibition of c-Myc, A-549 (c-Myc; [6]) [%]	c-Myc relative detection, HT-29 (c-Myc) [%]	c-Myc relative detection, MCF-7 (c-Myc) [%]
169 to 170	80 ± 12	51 ± 2	>100	76 ± 4	94 ± 15	84 ± 23	8 ± 1	>100	85 ± 7	>100	14 ± 6	8 ± 2		Nc1ccc(-c2cn(Cc3ccc(Br)cc3)nn2)cc1 [Compound 26, 4-(1-(4-bromobenzyl)-1H-1,2,3-triazol-4-yl)aniline]	> 100	82 ± 4	20	>100	64 ± 6
133 to 134	56 ± 7	45 ± 3	>100	88 ± 12	86 ± 11	91 ± 10	5 ± 1	>100	84 ± 8	>100	3.7	0.45	~50	Nc1ccc(-c2cn(Cc3ccccc3Br)nn2)cc1 [Compound 24, 4-(1-(2-bromobenzyl)-1H-1,2,3-triazol-4-yl)aniline]	> 100	>100		>100	57 ± 8
180 to 181	98 ± 3	>100	>100	>100	>100	94 ± 5	1	>100	95 ± 6	>100	2 ± 1	> 100		Nc1ccc(-c2cn(Cc3ccccc3)nn2)cc1 [Compound 14, 4-(1-benzyl-1H-1,2,3-triazol-4-yl)aniline]	> 100	>100		>100	60 ± 3
166 to 167	91 ± 4	70 ± 11	>100	89 ± 9	61 ± 22	81 ± 2	> 100	>100	93 ± 1	>100	> 100	> 100		COc1ccccc1Cn1cc(-c2ccc(N)cc2)nn1 [Compound 18, 4-(1-(2-methoxybenzyl)-1H-1,2,3-triazol-4-yl)aniline]	> 100	>100		>100	53 ± 3
128 to 129	>100	>100	>100	86 ± 17	66 ± 21	>100	2.1	>100	93 ± 1	>100	9 ± 6	0.7		Cc1cccc(Cn2cc(-c3ccc(N)cc3)nn2)c1 [Compound 16, 4-(1-(3-methylbenzyl)-1H-1,2,3-triazol-4-yl)aniline]	63 ± 34	>100		>100	78 ± 7
134 to 135	76 ± 1	48 ± 7	>100	>100	87 ± 17	87 ± 17	8 ± 4	>100	>100	>100	8.5			Nc1ccc(-c2cn(Cc3cccc(Br)c3)nn2)cc1 [Compound 25, 4-(1-(3-bromobenzyl)-1H-1,2,3-triazol-4-yl)aniline]	4 ± 3	>100		>100	56 ± 10
100 to 103														Brc1ccccc1Cn1cc(-c2ccccc2)nn1 [Compound 11, 1-(2-bromobenzyl)-4-phenyl-1H-1,2,3-triazole]					
